From publication PMC10610115, “Identification of Potential JNK3 Inhibitors: A Combined Approach Using Molecular Docking and Deep Learning-Based Virtual Screening” (Pharmaceuticals, 2023)

Target: T1, JNK3 (c-Jun N-terminal kinase 3) (Homo sapiens, UniProt P53779)
T1 construct: gene MAPK10
Test: HTRF-type kinase assay (Cryptate/XL665), dose response
Format: biochemical

T1 sequence (P53779 whole entry): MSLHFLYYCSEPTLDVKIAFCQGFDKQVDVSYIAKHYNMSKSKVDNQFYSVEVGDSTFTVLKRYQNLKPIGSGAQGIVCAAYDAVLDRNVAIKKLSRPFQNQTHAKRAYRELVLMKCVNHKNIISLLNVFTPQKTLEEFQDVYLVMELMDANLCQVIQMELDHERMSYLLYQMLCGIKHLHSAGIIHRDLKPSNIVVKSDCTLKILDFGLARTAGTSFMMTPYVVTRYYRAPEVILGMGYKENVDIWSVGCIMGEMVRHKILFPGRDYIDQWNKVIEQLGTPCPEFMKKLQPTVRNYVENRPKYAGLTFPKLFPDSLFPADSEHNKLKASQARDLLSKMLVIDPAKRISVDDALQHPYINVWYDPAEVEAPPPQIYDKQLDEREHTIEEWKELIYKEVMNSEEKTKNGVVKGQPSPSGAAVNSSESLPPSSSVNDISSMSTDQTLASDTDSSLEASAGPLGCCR

- IC50: 130 nM
Compound: CCc1nc(-c2cccc(C)c2)c(-c2ccnc(NC(=O)c3ccccc3)c2)s1 [compound 6, N-(4-(2-ethyl-4-(m-tolyl)thiazol-5-yl)pyridin-2-yl)benzamide]
